Laboratory results from patent US20260356819A1, “OXOISOINDOLINYL-SUBSTITUTED […] DERIVATIVE AND USE THEREOF” (GLUETACS THERAPEUTICS (SHANGHAI) CO., LTD., priority 2023, published 2026).

Columns and labels:
Format in all cases: cell-based
Details in all cases: compounds at 50 nM and 500 nM
WEE1 = target: T1, WEE1 (Homo sapiens, UniProt P30291+Q96SW2); test: Western blot degradation of WEE1 in hPBMCs (24 h)
T1 construct: The supernatant was aspirated as the extracted total cell protein; endogenous in cells; host or cells: human peripheral blood mononuclear cells (hPBMCs)
Summary of the method: (§1)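 Degradation in primary human PBMCs after 24 h compound exposure at 50 and 500 nM. Western blot band intensities, normalised to an internal control protein, expressed as % protein remaining relative to DMSO.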

IKZF1 = target: T2, IKZF1 (Homo sapiens, UniProt Q13422+Q96SW2); test: Western blot degradation of IKZF1 in hPBMCs (24 h)
T2 construct: The supernatant was aspirated as the extracted total cell protein; endogenous in cells; host or cells: human peripheral blood mononuclear cells (hPBMCs)
Summary of the method: as §1

IKZF2 = target: T3, IKZF2 (Homo sapiens, UniProt Q96SW2+Q9UKS7); test: Western blot degradation of IKZF2 in hPBMCs (24 h)
T3 construct: The supernatant was aspirated as the extracted total cell protein; endogenous in cells; host or cells: human peripheral blood mononuclear cells (hPBMCs)
Summary of the method: as §1

IKZF3 = target: T4, IKZF3 (Homo sapiens, UniProt Q96SW2+Q9UKT9); test: Western blot degradation of IKZF3 in hPBMCs (24 h)
T4 construct: The supernatant was aspirated as the extracted total cell protein; endogenous in cells; host or cells: human peripheral blood mononuclear cells (hPBMCs)
Summary of the method: as §1

CK1α = target: T5, CK1α (Homo sapiens, UniProt P48729+Q96SW2); test: Western blot degradation of CK1α in hPBMCs (24 h)
T5 construct: The supernatant was aspirated as the extracted total cell protein; endogenous in cells; host or cells: human peripheral blood mononuclear cells (hPBMCs)
Summary of the method: as §1

GSPT1 = target: T6, GSPT1 (Homo sapiens, UniProt P15170+Q96SW2); test: Western blot degradation of GSPT1 in hPBMCs (24 h)
T6 construct: The supernatant was aspirated as the extracted total cell protein; endogenous in cells; host or cells: human peripheral blood mononuclear cells (hPBMCs)
Summary of the method: as §1

T1 sequence (P30291 whole entry): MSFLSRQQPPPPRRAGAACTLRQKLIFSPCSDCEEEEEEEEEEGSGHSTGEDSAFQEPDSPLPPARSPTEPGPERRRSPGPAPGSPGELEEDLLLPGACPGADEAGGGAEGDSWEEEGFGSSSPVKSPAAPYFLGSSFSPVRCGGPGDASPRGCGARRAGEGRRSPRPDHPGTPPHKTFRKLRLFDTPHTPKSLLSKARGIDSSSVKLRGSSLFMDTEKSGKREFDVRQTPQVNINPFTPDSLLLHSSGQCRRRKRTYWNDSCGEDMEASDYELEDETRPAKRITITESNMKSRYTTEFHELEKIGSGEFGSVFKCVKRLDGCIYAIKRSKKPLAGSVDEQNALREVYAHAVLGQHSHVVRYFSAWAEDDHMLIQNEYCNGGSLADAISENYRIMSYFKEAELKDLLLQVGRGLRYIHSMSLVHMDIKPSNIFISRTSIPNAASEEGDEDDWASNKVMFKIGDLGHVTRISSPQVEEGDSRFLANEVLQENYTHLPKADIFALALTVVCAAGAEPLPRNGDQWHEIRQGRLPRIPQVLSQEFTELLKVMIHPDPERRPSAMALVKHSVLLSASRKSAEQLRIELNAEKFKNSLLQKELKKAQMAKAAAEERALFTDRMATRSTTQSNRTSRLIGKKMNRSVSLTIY
T1 sequence (Q96SW2 whole entry): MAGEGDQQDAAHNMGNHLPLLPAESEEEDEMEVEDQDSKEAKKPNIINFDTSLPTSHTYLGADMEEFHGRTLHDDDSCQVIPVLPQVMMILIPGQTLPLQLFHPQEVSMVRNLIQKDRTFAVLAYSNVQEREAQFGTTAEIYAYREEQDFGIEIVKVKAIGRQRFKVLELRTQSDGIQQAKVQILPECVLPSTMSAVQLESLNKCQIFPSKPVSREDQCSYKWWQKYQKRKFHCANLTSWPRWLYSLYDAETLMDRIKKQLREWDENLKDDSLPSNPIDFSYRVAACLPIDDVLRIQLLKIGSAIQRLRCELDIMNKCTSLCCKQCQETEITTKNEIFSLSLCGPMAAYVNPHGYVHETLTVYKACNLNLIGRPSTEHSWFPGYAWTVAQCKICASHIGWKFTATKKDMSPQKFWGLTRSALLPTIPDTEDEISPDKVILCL
T1 sequence (Q16531 whole entry partner): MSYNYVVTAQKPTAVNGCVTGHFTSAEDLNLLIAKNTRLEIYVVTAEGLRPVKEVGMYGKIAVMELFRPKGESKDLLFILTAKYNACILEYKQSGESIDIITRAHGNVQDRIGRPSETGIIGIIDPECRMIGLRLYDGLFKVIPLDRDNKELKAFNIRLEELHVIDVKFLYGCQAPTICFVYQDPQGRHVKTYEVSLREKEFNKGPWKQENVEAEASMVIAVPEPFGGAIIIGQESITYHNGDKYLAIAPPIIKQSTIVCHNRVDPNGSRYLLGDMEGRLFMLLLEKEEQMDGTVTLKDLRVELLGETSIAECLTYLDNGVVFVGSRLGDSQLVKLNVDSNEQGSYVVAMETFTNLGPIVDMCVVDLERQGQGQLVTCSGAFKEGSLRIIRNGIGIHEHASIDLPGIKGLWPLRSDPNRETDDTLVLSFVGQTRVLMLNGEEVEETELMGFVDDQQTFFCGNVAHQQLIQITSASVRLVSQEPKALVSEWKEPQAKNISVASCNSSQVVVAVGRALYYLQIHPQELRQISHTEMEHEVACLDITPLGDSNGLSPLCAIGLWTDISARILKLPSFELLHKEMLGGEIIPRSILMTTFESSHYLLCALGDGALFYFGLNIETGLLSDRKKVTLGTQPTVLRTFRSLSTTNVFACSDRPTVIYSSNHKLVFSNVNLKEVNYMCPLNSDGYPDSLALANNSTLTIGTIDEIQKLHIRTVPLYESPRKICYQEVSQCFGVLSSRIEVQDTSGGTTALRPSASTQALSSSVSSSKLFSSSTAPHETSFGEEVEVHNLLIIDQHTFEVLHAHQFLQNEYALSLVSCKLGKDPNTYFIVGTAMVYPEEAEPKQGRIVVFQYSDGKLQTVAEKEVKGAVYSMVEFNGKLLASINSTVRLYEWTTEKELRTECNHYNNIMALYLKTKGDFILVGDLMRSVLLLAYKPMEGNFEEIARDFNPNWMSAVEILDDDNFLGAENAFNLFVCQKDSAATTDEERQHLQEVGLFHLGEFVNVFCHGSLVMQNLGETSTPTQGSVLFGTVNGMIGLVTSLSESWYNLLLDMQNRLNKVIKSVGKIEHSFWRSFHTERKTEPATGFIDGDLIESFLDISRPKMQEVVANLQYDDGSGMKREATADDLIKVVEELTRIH
T6 sequence (P15170 whole entry): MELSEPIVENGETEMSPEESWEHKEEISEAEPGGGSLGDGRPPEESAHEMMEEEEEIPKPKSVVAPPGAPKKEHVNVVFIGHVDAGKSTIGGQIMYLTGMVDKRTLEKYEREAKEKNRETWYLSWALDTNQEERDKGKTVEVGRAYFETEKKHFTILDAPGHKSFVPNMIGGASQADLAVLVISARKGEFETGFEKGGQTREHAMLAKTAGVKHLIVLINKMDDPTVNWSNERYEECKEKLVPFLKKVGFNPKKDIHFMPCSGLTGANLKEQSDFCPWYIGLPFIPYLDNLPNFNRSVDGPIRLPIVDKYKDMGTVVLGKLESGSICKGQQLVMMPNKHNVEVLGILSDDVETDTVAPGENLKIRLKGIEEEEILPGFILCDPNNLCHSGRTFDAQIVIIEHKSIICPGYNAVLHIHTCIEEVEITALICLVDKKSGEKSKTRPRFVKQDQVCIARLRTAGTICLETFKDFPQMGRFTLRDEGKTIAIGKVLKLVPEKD
T6 sequence (Q96SW2 whole entry): as the sequence (Q96SW2 whole entry) above
T6 sequence (Q16531 whole entry partner): as the sequence (Q16531 whole entry partner) above
T5 sequence (P48729 whole entry): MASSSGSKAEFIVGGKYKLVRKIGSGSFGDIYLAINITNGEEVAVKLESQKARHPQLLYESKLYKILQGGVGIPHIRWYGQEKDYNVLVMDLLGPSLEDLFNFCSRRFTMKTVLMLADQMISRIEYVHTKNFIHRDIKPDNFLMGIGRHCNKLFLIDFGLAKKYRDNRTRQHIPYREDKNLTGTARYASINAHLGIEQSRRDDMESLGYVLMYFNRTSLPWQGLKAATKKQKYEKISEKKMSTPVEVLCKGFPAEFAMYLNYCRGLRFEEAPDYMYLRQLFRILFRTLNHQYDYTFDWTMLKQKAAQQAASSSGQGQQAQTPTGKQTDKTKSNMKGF
T5 sequence (Q96SW2 whole entry): as the sequence (Q96SW2 whole entry) above
T5 sequence (Q16531 whole entry partner): as the sequence (Q16531 whole entry partner) above
T2 sequence (Q13422 whole entry): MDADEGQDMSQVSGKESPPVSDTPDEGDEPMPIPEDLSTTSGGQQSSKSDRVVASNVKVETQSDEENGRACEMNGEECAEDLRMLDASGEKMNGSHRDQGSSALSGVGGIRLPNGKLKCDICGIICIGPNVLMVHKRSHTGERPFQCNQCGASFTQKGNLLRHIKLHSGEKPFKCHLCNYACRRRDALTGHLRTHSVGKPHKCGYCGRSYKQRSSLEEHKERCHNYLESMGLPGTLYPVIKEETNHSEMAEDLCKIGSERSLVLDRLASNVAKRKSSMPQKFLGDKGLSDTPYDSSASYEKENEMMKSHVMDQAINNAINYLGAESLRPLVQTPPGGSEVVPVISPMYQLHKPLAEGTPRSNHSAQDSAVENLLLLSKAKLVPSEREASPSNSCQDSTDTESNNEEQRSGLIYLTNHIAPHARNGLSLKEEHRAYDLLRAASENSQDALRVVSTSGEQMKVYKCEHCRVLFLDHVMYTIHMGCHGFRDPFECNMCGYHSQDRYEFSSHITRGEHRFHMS
T2 sequence (Q96SW2 whole entry): as the sequence (Q96SW2 whole entry) above
T2 sequence (Q16531 whole entry partner): as the sequence (Q16531 whole entry partner) above
T4 sequence (Q9UKT9 whole entry): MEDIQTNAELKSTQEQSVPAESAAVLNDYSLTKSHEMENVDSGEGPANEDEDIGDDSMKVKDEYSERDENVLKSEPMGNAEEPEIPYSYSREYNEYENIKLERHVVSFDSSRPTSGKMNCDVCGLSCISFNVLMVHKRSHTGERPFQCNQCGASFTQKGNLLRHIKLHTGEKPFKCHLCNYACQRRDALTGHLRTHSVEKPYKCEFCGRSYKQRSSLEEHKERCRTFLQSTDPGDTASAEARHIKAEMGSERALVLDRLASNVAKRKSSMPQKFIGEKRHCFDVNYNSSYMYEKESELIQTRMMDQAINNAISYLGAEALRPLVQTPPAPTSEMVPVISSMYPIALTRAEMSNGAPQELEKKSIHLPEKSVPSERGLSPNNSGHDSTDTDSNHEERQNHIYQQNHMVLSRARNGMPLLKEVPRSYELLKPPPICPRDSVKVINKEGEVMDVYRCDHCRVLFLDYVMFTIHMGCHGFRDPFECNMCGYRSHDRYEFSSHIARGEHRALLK
T4 sequence (Q96SW2 whole entry): as the sequence (Q96SW2 whole entry) above
T4 sequence (Q16531 whole entry partner): as the sequence (Q16531 whole entry partner) above

Compound	WEE1 substrate protein remaining % (WEE1)	IKZF1 substrate protein remaining % (IKZF1)	IKZF2 substrate protein remaining % (IKZF2)	IKZF3 substrate protein remaining % (IKZF3)	CK1α substrate protein remaining % (CK1α)	GSPT1 substrate protein remaining % (GSPT1)
O=C1CCN(N2C(=O)c3ccc(CN4CCN(C(c5ccccc5)c5ccncc5)CC4)cc3C2=O)C(=O)N1 (stereo not drawn) [GT-06378, 2-(2,4-dioxotetrahydropyrimidin-1(2H)-yl)-5-((4-(phenyl(pyridin-4-yl)methyl)piperazin-1-yl)methyl)isoindoline-1,3-dione]	A (0% ≤ substrate protein remaining % ≤80%)	B (80%< substrate protein remaining % ≤100%)	A (0% ≤ substrate protein remaining % ≤80%)	A (0% ≤ substrate protein remaining % ≤80%)	B (80%< substrate protein remaining % ≤100%)	B (80%< substrate protein remaining % ≤100%)
O=C1CCN(N2C(=O)c3ccc(CN4CCN(C(c5ccccn5)c5ccccn5)CC4)cc3C2=O)C(=O)N1 [GT-06379, 5-((4-(di(pyridin-2-yl)methyl)piperazin-1-yl)methyl)-2-(2,4-dioxotetrahydropyrimidin-1(2H)-yl)isoindoline-1,3-dione]	A (0% ≤ substrate protein remaining % ≤80%)	B (80%< substrate protein remaining % ≤100%)	A (0% ≤ substrate protein remaining % ≤80%)	A (0% ≤ substrate protein remaining % ≤80%)	B (80%< substrate protein remaining % ≤100%)	A (0% ≤ substrate protein remaining % ≤80%)
CC1(C)CN(Cc2ccc3c(c2)C(=O)N(N2CCC(=O)NC2=O)C3=O)CCN1C(c1ccccc1)c1ccccc1 [GT-06385, 5-((4-benzhydryl-3,3-dimethylpiperazin-1-yl)methyl)-2-(2,4-dioxotetrahydropyrimidin-1(2H)-yl)isoindoline-1,3-dione]	A (0% ≤ substrate protein remaining % ≤80%)	B (80%< substrate protein remaining % ≤100%)	B (80%< substrate protein remaining % ≤100%)	A (0% ≤ substrate protein remaining % ≤80%)	B (80%< substrate protein remaining % ≤100%)	A (0% ≤ substrate protein remaining % ≤80%)
O=C1CCN(N2Cc3cc(CN4CCC(c5nccc(Cl)c5Cl)CC4)ccc3C2=O)C(=O)N1 [GT-06388, 1-(5-((4-(3,4-dichloropyridin-2-yl)piperidin-1-yl)methyl)-1-oxoisoindolin-2-yl)dihydropyrimidine-2,4(1H,3H)-dione]	B (80%< substrate protein remaining % ≤100%)	B (80%< substrate protein remaining % ≤100%)	B (80%< substrate protein remaining % ≤100%)	B (80%< substrate protein remaining % ≤100%)	B (80%< substrate protein remaining % ≤100%)	A (0% ≤ substrate protein remaining % ≤80%)
O=C1CCN(N2Cc3cc(CN4CCC(c5ccnc(Cl)c5Cl)CC4)ccc3C2=O)C(=O)N1 [GT-06390, 1-(5-((4-(2,3-dichloropyridin-4-yl)piperidin-1-yl)methyl)-1-oxoisoindolin-2-yl)dihydropyrimidine-2,4(1H,3H)-dione]	B (80%< substrate protein remaining % ≤100%)	B (80%< substrate protein remaining % ≤100%)	B (80%< substrate protein remaining % ≤100%)	B (80%< substrate protein remaining % ≤100%)	B (80%< substrate protein remaining % ≤100%)	A (0% ≤ substrate protein remaining % ≤80%)
O=C1CCN(N2Cc3cc(CN4CC=C(c5cncc(Cl)c5)CC4)ccc3C2=O)C(=O)N1 [GT-06394, 1-(5-((5-chloro-3′,6′-dihydro-[3,4′-bipyridin]-1′ (2′H)-yl)methyl)-1-oxoisoindolin-2-yl)dihydropyrimidine-2,4(1H,3H)-dione]	B (80%< substrate protein remaining % ≤100%)	B (80%< substrate protein remaining % ≤100%)	A (0% ≤ substrate protein remaining % ≤80%)	B (80%< substrate protein remaining % ≤100%)	A (0% ≤ substrate protein remaining % ≤80%)	A (0% ≤ substrate protein remaining % ≤80%)
O=C1CCN(N2Cc3cc(CN4CC=C(c5ncccc5F)CC4)ccc3C2=O)C(=O)N1 [GT-06395, 1-(5-((3-fluoro-3′,6′-dihydro-[2,4′-bipyridin]-1′ (2′H)-yl)methyl)-1-oxoisoindolin-2-yl)dihydropyrimidine-2,4(1H,3H)-dione]	B (80%< substrate protein remaining % ≤100%)	B (80%< substrate protein remaining % ≤100%)	B (80%< substrate protein remaining % ≤100%)	B (80%< substrate protein remaining % ≤100%)	A (0% ≤ substrate protein remaining % ≤80%)	A (0% ≤ substrate protein remaining % ≤80%)
O=C1CCN(N2Cc3cc(CN4CCC(c5ccnc(F)c5F)CC4)ccc3C2=O)C(=O)N1 [GT-06396, 1-(5-((4-(2,3-difluoropyridin-4-yl)piperidin-1-yl)methyl)-1-oxoisoindolin-2-yl)dihydropyrimidine-2,4(1H,3H)-dione]	B (80%< substrate protein remaining % ≤100%)	B (80%< substrate protein remaining % ≤100%)	B (80%< substrate protein remaining % ≤100%)	B (80%< substrate protein remaining % ≤100%)	A (0% ≤ substrate protein remaining % ≤80%)	B (80%< substrate protein remaining % ≤100%)
O=C1CCN(N2Cc3cc(CN4CC=C(c5ccnc(F)c5F)CC4)ccc3C2=O)C(=O)N1 [GT-06397, 1-(5-((2′,3′-difluoro-3,6-dihydro-[4,4′-bipyridin]-1(2H)-yl)methyl)-1-oxoisoindolin-2-yl)dihydropyrimidine-2,4(1H,3H)-dione]	A (0% ≤ substrate protein remaining % ≤80%)	B (80%< substrate protein remaining % ≤100%)	A (0% ≤ substrate protein remaining % ≤80%)	B (80%< substrate protein remaining % ≤100%)	B (80%< substrate protein remaining % ≤100%)	A (0% ≤ substrate protein remaining % ≤80%)
CC1CN(Cc2ccc3c(c2)C(=O)N(N2CCC(=O)NC2=O)C3=O)CC(C)N1C(c1ccccc1)c1ccccc1 (stereo not drawn) [GT-06430, 5-((4-benzhydryl-3,5-dimethylpiperazin-1-yl)methyl)-2-(2,4-dioxotetrahydropyrimidin-1(2H)-yl)isoindoline-1,3-dione]	A (0% ≤ substrate protein remaining % ≤80%)	A (0% ≤ substrate protein remaining % ≤80%)	B (80%< substrate protein remaining % ≤100%)	A (0% ≤ substrate protein remaining % ≤80%)	B (80%< substrate protein remaining % ≤100%)	A (0% ≤ substrate protein remaining % ≤80%)
